# Reference: the supplement of paper PMC11208160
# Experiment: recombinant UMI read abundance after kanamycin selection (control-corrected) (log10(CPM+1)); higher = more efficient recombination; extreme values may be limits of the assay; sequences stand for … in AGTGCAGAGAAAATCGGCCAGTTTTCTCTGCCTGCAGTCCGCATGCCGTGGGACCCCTTGGGTTCTAACCTGTTGCCTAGATTTATGCAGCGGACTGCCTTTCTCCCAAAGTGATAAACCGG…AGGTTGGTTTCACT; site = the 11-nt donor
# Method in brief: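 Sequencing read counts were converted to CPM, averaged over two replicates and scaled by control-derived factors. Results are given as log10(CPM+1). The reads covered the donor–target junction of recombinant UMIs from a pooled Escherichia coli screen of donor and donor-binding-loop pairs for the IS621 bridge recombinase.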
# 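Note: IS621 bridge recombinase in Escherichia coli cells against a fixed T5 target plasmid.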
row,Sequence,recombinant UMI read abundance (log10)
1,CGATCATCATGGACCGGTTTTCCCGGTAATCCGTATTTGCT (site CGAAGATCTAG),0
2,CGATCATCATGGACCGGTTTTCCCGGTAATCCGTATTTGCT (site CGACAATCTAG),0.437
3,CGATCATCATGGACCGGTTTTCCCGGTAATCCGTATTTGCT (site CGACCAACTAG),0.00386
4,CGATCATCATGGACCGGTTTTCCCGGTAATCCGTATTTGCT (site CGACCATCTAC),0
5,CGATCATCATGGACCGGTTTTCCCGGTAATCCGTATTTGCT (site CGACCATCTAG),2.55
6,CGATCATCATGGACCGGTTTTCCCGGTAATCCGTATTTGCT (site CGACCATCTCG),0.019
7,CGATCATCATGGACCGGTTTTCCCGGTAATCCGTATTTGCT (site CGACCCTCTAG),0.00441
8,CGATCATCATGGACCGGTTTTCCCGGTAATCCGTATTTGCT (site CGAGCAGCTAG),0
9,CGATCATCATGGACCGGTTTTCCCGGTAATCCGTATTTGCT (site CGAGCATCTAA),0.0187
10,CGATCATCATGGACCGGTTTTCCCGGTAATCCGTATTTGCT (site CGAGCATCTAG),0
11,CGATCATCATGGACCGGTTTTCCCGGTAATCCGTATTTGCT (site CGAGCATCTTG),0
12,CGATCATCATGGACCGGTTTTCCCGGTAATCCGTATTTGCT (site CGAGCTTCTAG),0
13,CGATCATCATGGACCGGTTTTCCCGGTAATCCGTATTTGCT (site CGAGTATCTAG),0
14,CGATCATCATGGACCGGTTTTCCCGGTAATCCGTATTTGCT (site CGATAAACTAG),0.0203
15,CGATCATCATGGACCGGTTTTCCCGGTAATCCGTATTTGCT (site CGATAATCTAC),0
16,CGATCATCATGGACCGGTTTTCCCGGTAATCCGTATTTGCT (site CGATAATCTAG),0.558
17,CGATCATCATGGACCGGTTTTCCCGGTAATCCGTATTTGCT (site CGATAATCTCG),0
18,CGATCATCATGGACCGGTTTTCCCGGTAATCCGTATTTGCT (site CGATACTCTAG),0
19,CGATCATCATGGACCGGTTTTCCCGGTAATCCGTATTTGCT (site CGATCAACTAC),0.0107

row,Sequence,recombinant UMI read abundance (log10)
1,CGATCATCATGGACCGGTTTTCCCGGTAATCCGTATTTGCT (site CGATCAACTAG),0
2,CGATCATCATGGACCGGTTTTCCCGGTAATCCGTATTTGCT (site CGATCAACTCG),0
3,CGATCATCATGGACCGGTTTTCCCGGTAATCCGTATTTGCT (site CGATCACCTAG),0
4,CGATCATCATGGACCGGTTTTCCCGGTAATCCGTATTTGCT (site CGATCACCTAT),0.0275
5,CGATCATCATGGACCGGTTTTCCCGGTAATCCGTATTTGCT (site CGATCACCTGG),0.009
6,CGATCATCATGGACCGGTTTTCCCGGTAATCCGTATTTGCT (site CGATCAGCTAA),0.00801
7,CGATCATCATGGACCGGTTTTCCCGGTAATCCGTATTTGCT (site CGATCAGCTAG),0
8,CGATCATCATGGACCGGTTTTCCCGGTAATCCGTATTTGCT (site CGATCAGCTTG),0
9,CGATCATCATGGACCGGTTTTCCCGGTAATCCGTATTTGCT (site CGATCATCTAA),0
10,CGATCATCATGGACCGGTTTTCCCGGTAATCCGTATTTGCT (site CGATCATCTAC),0
11,CGATCATCATGGACCGGTTTTCCCGGTAATCCGTATTTGCT (site CGATCATCTAG),1.82
12,CGATCATCATGGACCGGTTTTCCCGGTAATCCGTATTTGCT (site CGATCATCTAT),0
13,CGATCATCATGGACCGGTTTTCCCGGTAATCCGTATTTGCT (site CGATCATCTCC),0.00455
14,CGATCATCATGGACCGGTTTTCCCGGTAATCCGTATTTGCT (site CGATCATCTCG),0
15,CGATCATCATGGACCGGTTTTCCCGGTAATCCGTATTTGCT (site CGATCATCTGG),0
16,CGATCATCATGGACCGGTTTTCCCGGTAATCCGTATTTGCT (site CGATCATCTGT),0
17,CGATCATCATGGACCGGTTTTCCCGGTAATCCGTATTTGCT (site CGATCATCTTA),0
18,CGATCATCATGGACCGGTTTTCCCGGTAATCCGTATTTGCT (site CGATCATCTTG),0
19,CGATCATCATGGACCGGTTTTCCCGGTAATCCGTATTTGCT (site CGATCCACTAG),0.00991

row,Sequence,recombinant UMI read abundance (log10)
1,CGATCATCATGGACCGGTTTTCCCGGTAATCCGTATTTGCT (site CGATCCTCTAC),0.00344
2,CGATCATCATGGACCGGTTTTCCCGGTAATCCGTATTTGCT (site CGATCCTCTAG),0
3,CGATCATCATGGACCGGTTTTCCCGGTAATCCGTATTTGCT (site CGATCCTCTCG),0.00562
4,CGATCATCATGGACCGGTTTTCCCGGTAATCCGTATTTGCT (site CGATCGCCTAG),0.00385
5,CGATCATCATGGACCGGTTTTCCCGGTAATCCGTATTTGCT (site CGATCGTCTAG),0
6,CGATCATCATGGACCGGTTTTCCCGGTAATCCGTATTTGCT (site CGATCGTCTAT),0
7,CGATCATCATGGACCGGTTTTCCCGGTAATCCGTATTTGCT (site CGATCGTCTGG),0
8,CGATCATCATGGACCGGTTTTCCCGGTAATCCGTATTTGCT (site CGATCTGCTAG),0
9,CGATCATCATGGACCGGTTTTCCCGGTAATCCGTATTTGCT (site CGATCTTCTAA),0
10,CGATCATCATGGACCGGTTTTCCCGGTAATCCGTATTTGCT (site CGATCTTCTAG),0
11,CGATCATCATGGACCGGTTTTCCCGGTAATCCGTATTTGCT (site CGATCTTCTTG),0
12,CGATCATCATGGACCGGTTTTCCCGGTAATCCGTATTTGCT (site CGATGACCTAG),0
13,CGATCATCATGGACCGGTTTTCCCGGTAATCCGTATTTGCT (site CGATGATCTAG),0
14,CGATCATCATGGACCGGTTTTCCCGGTAATCCGTATTTGCT (site CGATGATCTAT),0.00469
15,CGATCATCATGGACCGGTTTTCCCGGTAATCCGTATTTGCT (site CGATGATCTGG),0
16,CGATCATCATGGACCGGTTTTCCCGGTAATCCGTATTTGCT (site CGATGGTCTAG),0
17,CGATCATCATGGACCGGTTTTCCCGGTAATCCGTATTTGCT (site CGATTAGCTAG),0.0161
18,CGATCATCATGGACCGGTTTTCCCGGTAATCCGTATTTGCT (site CGATTATCTAA),0
19,CGATCATCATGGACCGGTTTTCCCGGTAATCCGTATTTGCT (site CGATTATCTAG),0
